Experimental findings from patent US11986532B2 (Arvinas Operations, Inc., priority 2021, dated 2024) are described below.

Like-named read-outs stand apart in the source and are kept apart here. Some results are limits rather than exact numbers.

The target of this experiment is T1, BCL6 (Homo sapiens, UniProt P41182).
T1 construct: endogenous in cells; host or cells: T47D breast cancer epithelial cells
Briefly: Immunofluorescence protocol for high content imaging of BCL6 (degradation) in T47D cells, 3 days compound treatment. It is filed as cell-based. As to conditions: for DC50: read-out: Mean DC50 (nM)* category; for Dmax: read-out: Mean Dmax (%)** category. The method, boiled down: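 Remaining BCL6 in breast cancer T47D cells was measured by high-content immunofluorescence imaging after 3 days of treatment with serially diluted compound (top 0.1 or 1 μM). Nuclei were stained with Hoechst and cells with CellMask.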

[1] abbreviates: T47D cells, 3 days compound treatment.

Regarding `CNC(=O)COc1cc2cc(Nc3nc(N4CCC(O[C@H]5C[C@H](N6CCC(c7cc(F)c8c(c7)CN(C7CCC(=O)NC7=O)C8=O)CC6)C5)CC4)ncc3Cl)ccc2n(C(C)C)c1=O` (stereo partly drawn) [Compound 92, 2-({6-[(5-chloro-2-{4-[(1r,3r)-3-{4-[2-(2,6-dioxopiperidin-3-yl)-7-fluoro-1-oxo-2,3-dihydro-1H-isoindol-5-yl]piperidin-1-yl}cyclobutoxy]piperidin-1-yl}pyrimidin-4-yl)amino]-2-oxo-1-(propan-2-yl)-1,2-dihydroquinolin-3-yl}oxy)-N-methylacetamide], under setting [1], the DC50 is under 10 nM and the maximal degradation (Dmax) was at least 70%.
On to `CNC(=O)COc1cc2cc(Nc3nc(N4CCC(O[C@H]5C[C@H](N6CCC7(CC6)CN(c6ccc8c(c6)C(=O)N(C6CCC(=O)NC6=O)C8=O)C7)C5)CC4)ncc3Cl)ccc2n(C(C)C)c1=O` (stereo partly drawn) [Compound 357, 2-({6-[(5-chloro-2-{4-[(1r,3r)-3-{2-[2-(2,6-dioxopiperidin-3-yl)-1,3-dioxo-2,3-dihydro-1H-isoindol-5-yl]-2,7-diazaspiro [3.5]nonan-7-yl}cyclobutoxy]piperidin-1-yl}pyrimidin-4-yl)amino]-2-oxo-1-(propan-2-yl)-1,2-dihydroquinolin-3-yl}oxy)-N-methylacetamide], for which the half-maximal degradation concentration (DC50) was under 10 nM. Under “T47D”, the greatest degradation seen (Dmax) was at least 70%.
`CNC(=O)COc1cc2cc(Nc3nc(N4CCC(O[C@H]5C[C@H](N6CC=C(c7ccc8c(c7)C(=O)N(C7CCC(=O)NC7=O)C8=O)CC6)C5)CC4)ncc3Cl)ccc2n(C(C)C)c1=O` (stereo partly drawn) [Compound 303, 2-({6-[(5-chloro-2-{4-[(1r,3r)-3-{4-[2-(2,6-dioxopiperidin-3-yl)-1,3-dioxo-2,3-dihydro-1H-isoindol-5-yl]-1,2,3,6-tetrahydropyridin-1-yl}cyclobutoxy]piperidin-1-yl}pyrimidin-4-yl)amino]-2-oxo-1-(propan-2-yl)-1,2-dihydroquinolin-3-yl}oxy)-N-methylacetamide]: the half-maximal degradation concentration (DC50) lay within 50 to 100 nM. Further, for the setting “T47D”, the Dmax is 50 to 70%.
For `CNC(=O)COc1cc2cc(Nc3nc(N4CCN(CC5CCC6(CC5)CN(c5cccc7c5CN(C5CCC(=O)NC5=O)C7=O)C6)CC4)ncc3Cl)ccc2n(C(C)C)c1=O` (stereo not drawn) [Compound 313, 2-{[6-({5-chloro-2-[4-({2-[2-(2,6-dioxopiperidin-3-yl)-1-oxo-2,3-dihydro-1H-isoindol-4-yl]-2-azaspiro[3.5]nonan-7-yl}methyl)piperazin-1-yl]pyrimidin-4-yl}amino)-2-oxo-1-(propan-2-yl)-1,2-dihydroquinolin-3-yl]oxy}-N-methylacetamide], in that order: under 10 nM and 50 to 70%.
As to `CNC(=O)COc1cc2cc(Nc3nc(N4CCC(O[C@H]5C[C@H](N6CCN(c7ccc8c(c7Cl)CN(C7CCC(=O)NC7=O)C8=O)CC6)C5)CC4)ncc3Cl)ccc2n(C(C)C)c1=O` (stereo partly drawn) [Compound 181, 2-({6-[(5-chloro-2-{4-[(1r,3r)-3-{4-[4-chloro-2-(2,6-dioxopiperidin-3-yl)-1-oxo-2,3-dihydro-1H-isoindol-5-yl]piperazin-1-yl}cyclobutoxy]piperidin-1-yl}pyrimidin-4-yl)amino]-2-oxo-1-(propan-2-yl)-1,2-dihydroquinolin-3-yl}oxy)-N-methylacetamide], under setting [1], the DC50 is under 10 nM and the greatest degradation seen (Dmax) is at least 70%.
For `CNC(=O)COc1cc2cc(Nc3nc(N4CCN(C(C)(C)C5CCN(c6ccc7c(c6)CN(C6CCC(=O)NC6=O)C7=O)CC5)CC4)ncc3Cl)ccc2n(C(C)C)c1=O` (stereo not drawn) [Compound 13, 2-{[6-({5-chloro-2-[4-(2-{1-[2-(2,6-dioxopiperidin-3-yl)-1-oxo-2,3-dihydro-1H-isoindol-5-yl]piperidin-4-yl}propan-2-yl)piperazin-1-yl]pyrimidin-4-yl}amino)-2-oxo-1-(propan-2-yl)-1,2-dihydroquinolin-3-yl]oxy}-N-methylacetamide], in that order: under 10 nM and at least 70%.
The corresponding values for `CNC(=O)COc1cc2cc(Nc3nc(N4CCC(CN5CCC6(CN(c7cc8c(c(OC)c7)C(=O)N(C7CCC(=O)NC7=O)C8)C6)C(F)(F)C5)CC4)ncc3Cl)ccc2n(C(C)C)c1=O` (stereo not drawn) [Compound 101, 2-{[6-({5-chloro-2-[4-({2-[2-(2,6-dioxopiperidin-3-yl)-7-methoxy-1-oxo-2,3-dihydro-1H-isoindol-5-yl]-5,5-difluoro-2,7-diazaspiro[3.5]nonan-7-yl}methyl)piperidin-1-yl]pyrimidin-4-yl}amino)-2-oxo-1-(propan-2-yl)-1,2-dihydroquinolin-3-yl]oxy}-N-methylacetamide] are under 10 nM and 50 to 70%.
Take `CNC(=O)COc1cc2cc(Nc3nc(N4CCC(O[C@H]5C[C@H](N6CCC(c7ccc8c(n7)CN(C7CCC(=O)NC7=O)C8=O)CC6)C5)CC4)ncc3Cl)ccc2n(C(C)C)c1=O` (stereo partly drawn) [Compound 214, 2-({6-[(5-chloro-2-{4-[(1r,3r)-3-{4-[6-(2,6-dioxopiperidin-3-yl)-5-oxo-5H,6H,7H-pyrrolo[3,4-b]pyridin-2-yl]piperidin-1-yl}cyclobutoxy]piperidin-1-yl}pyrimidin-4-yl)amino]-2-oxo-1-(propan-2-yl)-1,2-dihydroquinolin-3-yl}oxy)-N-methylacetamide]: the 50% degradation concentration (DC50) was under 10 nM. In addition, the Dmax (T47D) lay within 50 to 70%.
The corresponding values for `CNC(=O)COc1cc2cc(Nc3nc(N4CCC(O[C@H]5C[C@H](N6CCC7(CCN(c8ccc9c(c8)CN(C8CCC(=O)NC8=O)C9=O)C7)CC6)C5)CC4)ncc3Cl)ccc2n(C(C)C)c1=O` (stereo partly drawn) [Compound 361, 2-({6-[(5-chloro-2-{4-[(1r,3r)-3-{2-[2-(2,6-dioxopiperidin-3-yl)-1-oxo-2,3-dihydro-1H-isoindol-5-yl]-2,8-diazaspiro [4.5]decan-8-yl}cyclobutoxy]piperidin-1-yl}pyrimidin-4-yl)amino]-2-oxo-1-(propan-2-yl)-1,2-dihydroquinolin-3-yl}oxy)-N-methylacetamide] are under 10 nM and 50 to 70%.
The corresponding values for `CNC(=O)COc1cc2cc(Nc3nc(N4CCC(O[C@H]5C[C@H](N6CCC7(CC6)CN(c6ccc8c(c6)CN(C6CCC(=O)NC6=O)C8=O)C7)C5)CC4)ncc3Cl)ccc2n(C(C)C)c1=O` (stereo partly drawn) [Compound 366, 2-({6-[(5-chloro-2-{4-[(1r,3r)-3-{2-[2-(2,6-dioxopiperidin-3-yl)-1-oxo-2,3-dihydro-1H-isoindol-5-yl]-2,7-diazaspiro [3.5]nonan-7-yl}cyclobutoxy]piperidin-1-yl}pyrimidin-4-yl)amino]-2-oxo-1-(propan-2-yl)-1,2-dihydroquinolin-3-yl}oxy)-N-methylacetamide] are under 10 nM and at least 70%.
For the compound `CNC(=O)COc1cc2cc(Nc3nc(N4CCC(O[C@H]5C[C@H](N6CC[C@H](c7ccc8c(c7)CN(C7CCC(=O)NC7=O)C8=O)[C@H](F)C6)C5)CC4)ncc3Cl)ccc2n(C(C)C)c1=O` (mixture of isomers) [Compound 131], under setting [1], the half-maximal degradation concentration (DC50) is under 10 nM and the greatest degradation seen (Dmax) was 50 to 70%.
As for `CNC(=O)COc1cc2cc(Nc3nc(N4CCC(O[C@H]5C[C@H](N6CC7(CN(c8ccc9c(c8)C(=O)N(C8CCC(=O)NC8=O)C9=O)C7)C6)C5)CC4)ncc3Cl)ccc2n(C(C)C)c1=O` (stereo partly drawn) [Compound 311, 2-({6-[(5-chloro-2-{4-[(1r,3r)-3-{6-[2-(2,6-dioxopiperidin-3-yl)-1,3-dioxo-2,3-dihydro-1H-isoindol-5-yl]-2,6-diazaspiro[3.3]heptan-2-yl}cyclobutoxy]piperidin-1-yl}pyrimidin-4-yl)amino]-2-oxo-1-(propan-2-yl)-1,2-dihydroquinolin-3-yl}oxy)-N-methylacetamide], the DC50 was under 10 nM. Also, under “T47D”, the Dmax was in the range of 50 to 70%.
Regarding `CNC(=O)COc1cc2cc(Nc3nc(N4CCC(CN5CCC6(CC5)CN(c5ccc7c(c5)C(=O)N(C5CCC(=O)NC5=O)C7=O)C6=O)CC4)ncc3Cl)ccc2n(C(C)C)c1=O` (stereo not drawn) [Compound 65, 2-{[6-({5-chloro-2-[4-({2-[2-(2,6-dioxopiperidin-3-yl)-1,3-dioxo-2,3-dihydro-1H-isoindol-5-yl]-1-oxo-2,7-diazaspiro[3.5]nonan-7-yl}methyl)piperidin-1-yl]pyrimidin-4-yl}amino)-2-oxo-1-(propan-2-yl)-1,2-dihydroquinolin-3-yl]oxy}-N-methylacetamide], under setting [1], the 50% degradation concentration (DC50) was at least 100 nM and the Dmax was at least 70%.
For `CNC(=O)COc1cc2cc(Nc3nc(N4CCN(CC5CCN(c6ccc7c(c6)CN(C6CCC(=O)NC6=O)C7=O)CC5)CC4)ncc3Cl)ccc2n(C)c1=O` (stereo not drawn) [Compound 67, 2-{[6-({5-chloro-2-[4-({1-[2-(2,6-dioxopiperidin-3-yl)-1-oxo-2,3-dihydro-1H-isoindol-5-yl]piperidin-4-yl}methyl)piperazin-1-yl]pyrimidin-4-yl}amino)-1-methyl-2-oxo-1,2-dihydroquinolin-3-yl]oxy}-N-methylacetamide], under setting [1], the 50% degradation concentration (DC50) is under 10 nM and the Dmax is 50 to 70%.
The corresponding values for `CNC(=O)COc1cc2cc(Nc3nc(N4CCC(C(C)(C)N5CCC6(CC5)CN(c5cccc7c5CN(C5CCC(=O)NC5=O)C7=O)C6)CC4)ncc3Cl)ccc2n(C(C)C)c1=O` (stereo not drawn) [Compound 59, 2-{[6-({5-chloro-2-[4-(2-{2-[2-(2,6-dioxopiperidin-3-yl)-1-oxo-2,3-dihydro-1H-isoindol-4-yl]-2,7-diazaspiro[3.5]nonan-7-yl}propan-2-yl)piperidin-1-yl]pyrimidin-4-yl}amino)-2-oxo-1-(propan-2-yl)-1,2-dihydroquinolin-3-yl]oxy}-N-methylacetamide] are under 10 nM and 50 to 70%.

As a reminder, the DC50 is the midpoint of the concentration-degradation curve. As usually defined, the Dmax is the largest share of the target that was removed.
